Source: patent US7109243B2 (IRM LLC, priority 2003, dated 2006)
Read-outs that look alike come from different tables or passages of the source.

Key:
Cathepsin S = Cathepsin S (Homo sapiens, UniProt P25774); assay: Cathepsin S inhibition assay (fluorogenic peptide substrate); type: biochemical
Description: “Inhibition constant”, Ki, is the dissociation constant of the enzyme-inhibitor complex, or the reciprocal of the binding affinity of the inhibitor to the enzyme. […] The inhibited rates are then fit by nonlinear regression to the following equation: […]
The assumption being made for the classical inhibition described above is that the free inhibitor concentration is equal to the total inhibitor concentration.
Kinetic measurements are performed in a total reaction volume of 30 μl in 384-well microtiter plates. […] The reactions are initiated by adding the substrate, acetyl-histidine-proline-valine-lysine-amino carbamoyl coumarin, to a final concentration of 50 μM. The rate of substrate hydrolysis is measured by monitoring the increase in fluorescence at an excitation wavelength of 380 nm and an emission wavelength of 450 nm that results from cleavage of the aniline bond in the substrate by the enzyme.

Cathepsin K = molecular target: T1, Cathepsin K (Homo sapiens, UniProt P43235); assay: Cathepsin K inhibition assay (fluorogenic peptide substrate); selectivity ratio vs cathepsin S; type: biochemical
T1 sequence (P43235 115-329): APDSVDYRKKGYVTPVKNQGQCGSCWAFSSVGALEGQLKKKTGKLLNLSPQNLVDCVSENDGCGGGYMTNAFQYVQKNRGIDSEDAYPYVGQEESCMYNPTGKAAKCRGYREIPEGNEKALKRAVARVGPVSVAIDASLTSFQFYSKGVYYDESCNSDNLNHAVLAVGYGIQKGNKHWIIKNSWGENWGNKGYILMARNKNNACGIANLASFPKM
Description: The optimal substrate for cathepsin K, acetyl-lysine-histidine-proline-lysine-amino carbamoyl coumarin, was identified from screening a combinatorial library of fluorogenic peptide substrates (Harris, J. L., B. J. Backes, et al., Proc Natl Acad Sci USA 2000, 97(14), 7754-9). Kinetic measurements are performed in a total reaction volume of 30 μl in 384-well microtiter plates. […] The reactions are initiated by adding the substrate, acetyl-lysine-histidine-proline-lysine-amino carbamoyl coumarin, to a final concentration of 40 μM. The rate of substrate hydrolysis is measured by monitoring the increase in fluorescence at an excitation wavelength of 380 nm and an emission wavelength of 450 nm that results from cleavage of the aniline bond in the substrate by the enzyme. The apparent inhibition constants for the compounds are determined from the enzyme progress curves ([…]. Elrod, et al., Anal Biochem 2000, 286(1), 45-50) and are then used to calculate the inhibition constants for competitive inhibitors. Selectivity for cathepsin S in the presence of cathepsin isozymes was determined by the ratio of the cathepsin isozyme inhibition constant of a compound of the present invention to the cathepsin S inhibition constant of the same compound.

[1] = Table II, compounds of Formula I, read-out: Ki Cat. S
[2] = ratio of cathepsin K inhibition constant to cathepsin S inhibition constant, Table II

Chain of Cathepsin S (P25774 115-331, species assumed): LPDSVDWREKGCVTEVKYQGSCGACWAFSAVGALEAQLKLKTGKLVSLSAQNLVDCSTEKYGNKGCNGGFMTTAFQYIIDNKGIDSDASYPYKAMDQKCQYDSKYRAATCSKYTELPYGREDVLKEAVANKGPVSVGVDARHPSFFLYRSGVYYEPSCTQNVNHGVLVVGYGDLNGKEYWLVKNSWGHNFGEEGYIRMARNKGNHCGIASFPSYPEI

| Compound | Ki (Cathepsin S; [1]) | Selectivity for Cat. S over Cat. K (Cathepsin K; [2]) | Ki (Cathepsin S; comparison compounds in the art, read-out: Ki (CatS)) | Selectivity for Cat. S over Cat. K (Cathepsin K; comparison compounds in the art, ratio Ki CatK / Ki CatS) | Ki (Cathepsin K; comparison compounds in the art, read-out: Ki (CatK)) |
| --- | --- | --- | --- | --- | --- |
| C[C@H](C(=O)N[C@@H](CC1CCCCC1)C(=O)NCCNc1ccc(F)cc1)c1ccccc1 [Compound 294, N-(S)-{2-cyclohexyl-1-[2-(4-fluoro-phenylamino)-ethylcarbamoyl]-ethyl}-2-(S)-phenyl-propionamide] | < 0.1 µM | ++ (++, >100) | – | – | – |
| COc1ccc(NCCNC(=O)[C@H](CC2CCCCC2)NC(=O)c2ccc(-c3ccccc3OC)cc2)cc1 [Compound 174, (S)-2′-Methoxy-biphenyl-4-carboxylic acid {2-cyclohexyl-1-[2-(4-methoxy-phenylamino)-ethylcarbamoyl]-ethyl}-amide] | < 0.1 µM | + (+, >10) | – | – | – |
| O=C(N[C@@H](CC1CCCCC1)C(=O)NCCNc1ccc(F)cc1)c1ccco1 [Compound 264, Furan-2-carboxylic acid (S)-{2-cyclohexyl-1-[2-(4-fluoro-phenylamino)-ethylcarbamoyl]-ethyl}-amide] | < 0.1 µM | ++ (++, >100) | – | – | – |
| O=C(N[C@@H](CC1CCCCC1)C(=O)NCCNc1ccc(OC(F)(F)F)cc1)c1ccc(-c2ccccc2Cl)cc1 [Compound 194, (S)-2′-Chloro-biphenyl-4-carboxylic acid {2-cyclohexyl-1-[2-(4-trifluoromethoxy-phenylamino)-ethylcarbamoyl]-ethyl}-amide] | < 1 µM | + (+, >10) | – | – | – |
| CC(C)C[C@H](NC(=O)OCc1ccccc1)C(=O)NCCNc1cccc2ccccc12 [reference compound] | – | – | < 1 µM | <10 | < 0.1 µM |
| COc1ccc(NCCNC(=O)[C@H](Cc2ccc(-c3cc(Cl)ccc3Cl)cc2)NC(=O)c2cccc(C)c2)cc1 [Compound 286, (S)-N-{2-(2′,5′-Dichloro-biphenyl-4-yl)-1-[2-(4-methoxy-phenylamino)-ethylcarbamoyl]-ethyl}-3-methyl-benzamide] | < 10 µM | + (+, >10) | – | – | – |
| COc1ccc(NCCNC(=O)[C@H](CC2CCCCC2)NC(=O)c2cccc(C#N)c2)cc1 [Compound 120, (S)-3-Cyano-N-{2-cyclohexyl-1-[2-(4-methoxy-phenylamino)-ethylcarbamoyl]-ethyl}-benzamide] | < 0.1 µM | ++ (++, >100) | – | – | – |
| COc1ccc(NCCNC(=O)[C@H](Cc2ccc(-c3cc(OC)ccc3OC)cc2)NC(=O)c2cccc(C)c2)cc1 [Compound 285, (S)-N-{2-(2′,5′-Dimethoxy-biphenyl-4-yl)-1-[2-(4-methoxy-phenylamino)-ethylcarbamoyl]-ethyl}-3-methyl-benzamide] | < 1 µM | ++ (++, >100) | – | – | – |
| COc1ccc(NCCNC(=O)[C@H](CC2CCCCC2)NC(=O)c2cc(Cl)ccc2F)cc1 [Compound 156, (S)-5-Chloro-N-{2-cyclohexyl-1-[2-(4-methoxy-phenylamino)-ethylcarbamoyl]-ethyl}-2-fluoro-benzamide] | < 0.1 µM | +++ (+++, >1000) | – | – | – |
| O=C(Cc1ccccc1F)N[C@@H](CC1CCCCC1)C(=O)NCCNc1ccc(F)cc1 [Compound 306, 3-Cyclohexyl-2-(S)-[2-(2-fluoro-phenyl)-acetylamino]-N-[2-(4-fluoro-phenylamino)-ethyl]-propionamide] | < 0.1 µM | +++ (+++, >1000) | – | – | – |
| COc1ccc(NCCNC(=O)[C@H](CC2CCCCC2)NC(=O)c2cccc(F)c2C)cc1 [Compound 147, (S)-N-{2-Cyclohexyl-1-[2-(4-methoxy-phenylamino)-ethylcarbamoyl]-ethyl}-3-fluoro-2-methyl-benzamide] | < 0.1 µM | +++ (+++, >1000) | – | – | – |
| COc1ccc(NCCNC(=O)[C@H](CC2CCCCC2)NC(=O)c2cc(C)ccc2Cl)cc1 [Compound 148, (S)-2-Chloro-N-{2-cyclohexyl-1-[2-(4-methoxy-phenylamino)-ethylcarbamoyl]-ethyl}-5-methyl-benzamide] | < 0.1 µM | +++ (+++, >1000) | – | – | – |
| COc1ccc(NCCNC(=O)[C@H](Cc2c[nH]c3ccccc23)NC(=O)c2cccc(C)c2)cc1 [Compound 257, (S)-N-{2-(1H-Indol-3-yl)-1-[2-(4-methoxy-phenylamino)-ethylcarbamoyl]-ethyl}-3-methyl-benzamide] | < 0.1 µM | +++ (+++, >1000) | – | – | – |
| COc1ccc(NCCNC(=O)[C@H](CC2CCCCC2)NC(=O)c2c[nH]c3ccccc23)cc1 [Compound 185, (S)-1H-Indole-3-carboxylic acid {2-cyclohexyl-1-[2-(4-methoxy-phenylamino)-ethylcarbamoyl]-ethyl}-amide] | < 0.1 µM | ++ (++, >100) | – | – | – |
| O=C(Cc1c[nH]c2ccccc12)NC(CC1CCCCC1)C(=O)NCCNc1ccc(F)cc1 (centres unmarked) [Compound 83, 3-Cyclohexyl-N-[2-(4-fluoro-phenylamino)-ethyl]-2-(2-1H-indol-3-yl-acetylamino)-propionamide] | < 0.1 µM | ++ (++, >100) | – | – | – |
| COc1ccc(NCCNC(=O)[C@H](CC2CCCCC2)NC(=O)c2cccc(Cl)c2)cc1 [Compound 118, (S)-3-Chloro-N-{2-cyclohexyl-1-[2-(4-methoxy-phenylamino)-ethylcarbamoyl]-ethyl}-benzamide] | < 0.1 µM | ++ (++, >100) | – | – | – |
| COc1ccc(NCCNC(=O)C(NC(=O)c2ccc(-c3cccc(C(F)(F)F)c3)o2)c2ccccc2)cc1 (racemic) [Compound 9, (±)-N-((2-(4-methoxyphenylamino)ethylcarbamoyl)(phenyl)-methyl)-5-(3-(trifluoromethyl)phenyl)furan-2-carboxamide] | < 1 µM | + (+, >10) | – | – | – |
| COc1ccccc1-c1ccc(C(=O)N[C@@H](CC2CCCCC2)C(=O)NCCNc2ccc(OC(F)(F)F)cc2)o1 [Compound 210, (S)-5-(2-Methoxy-phenyl)-furan-2-carboxylic acid {2-cyclohexyl-1-[2-(4-trifluoromethoxy-phenylamino)-ethylcarbamoyl]-ethyl}-amide] | < 0.1 µM | ++ (++, >100) | – | – | – |
| COc1ccc(NCCNC(=O)C(NC(=O)c2cccc(C)c2)c2ccc(OC)cc2)cc1 (centres unmarked) [Compound 211, N-{(4-Methoxy-phenyl)-[2-(4-methoxy-phenylamino)-ethylcarbamoyl]-methyl}-3-methyl-benzamide] | < 1 µM | ++ (++, >100) | – | – | – |
| COc1ccc(NCCNC(=O)[C@H](CCC2CCCCC2)NC(=O)c2ccc(N3CCOCC3)cc2)cc1 [Compound 127, (S)-N-{3-Cyclohexyl-1-[2-(4-methoxy-phenylamino)-ethylcarbamoyl]-propyl}-4-morpholin-4-yl-benzamide] | < 1 µM | ++ (++, >100) | – | – | – |
| COc1ccc(NCCNC(=O)[C@H](CC2CCCCC2)NC(=O)c2ccc(F)c(C)c2)cc1 [Compound 167, (S)-N-{2-Cyclohexyl-1-[2-(4-methoxy-phenylamino)-ethylcarbamoyl]-ethyl}-4-fluoro-3-methyl-benzamide] | < 0.1 µM | +++ (+++, >1000) | – | – | – |
| CS(=O)(=O)c1ccc(C(=O)N[C@@H](CC2CCCCC2)C(=O)NCCNc2ccc(F)cc2)cc1 [Compound 313, N-(S)-{2-cyclohexyl-1-[2-(4-fluoro-phenylamino)-ethylcarbamoyl]-ethyl}-4-methanesulfonyl-benzamide] | < 1 µM | + (+, >10) | – | – | – |
| COc1ccc(NCCNC(=O)[C@H](Cc2ccc(-c3cccc([N+](=O)[O-])c3)cc2)NC(=O)c2cccc(C)c2)cc1 [Compound 271, (S)-N-[1-[2-(4-Methoxy-phenylamino)-ethylcarbamoyl]-2-(3′-nitro-biphenyl-4-yl)-ethyl]-3-methyl-benzamide] | < 1 µM | ++ (++, >100) | – | – | – |
| COc1ccc(NCCNC(=O)[C@H](CC2CCCCC2)NC(=O)c2cccc(C(F)(F)F)c2)cc1 [Compound 106, (S)-N-{2-Cyclohexyl-1-[2-(4-methoxy-phenylamino)-ethylcarbamoyl]-ethyl}-3-trifluoromethyl-benzamide] | < 0.1 µM | ++ (++, >100) | – | – | – |
| (S)-3-Bromo-N-{1-[2-(4-methoxy-phenylamino)-ethylcarbamoyl]-2-phenyl-ethyl}-4-methyl-benzamide [Compound 24] | – | + (+, >10) | – | – | – |
